Test results reported in PubChem BioAssay (NCI).
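Tested at 5 concentrations; 48 h exposure; 96-well plates; endpoints linearly interpolated, else capped at highest concentration. TGI denotes the concentration required for complete inhibition of growth.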

Legend:
Test in all cases: NCI tumour cell line growth inhibition, 48 h
SF-295 CNS = system: SF-295 CNS
OVCAR-8 ovarian = system: OVCAR-8 ovarian
HOP-62 NSCLC = system: HOP-62 NSCLC
TK-10 renal = system: TK-10 renal
NCI-H226 lung = system: NCI-H226 lung
KM20L2 colon = system: KM20L2 colon
COLO 205 colon = system: COLO 205 colon
NCI-H23 lung = system: NCI-H23 lung
SNB-19 CNS = system: SNB-19 CNS
NCI-H460 lung = system: NCI-H460 lung
A549 NSCLC = system: A549 NSCLC
UO-31 renal = system: UO-31 renal
SR leukemia = system: SR leukemia
HL-60(TB) leukemia = system: HL-60(TB) leukemia
HCC-2998 colon = system: HCC-2998 colon
ACHN renal = system: ACHN renal
EKVX NSCLC = system: EKVX NSCLC
A498 renal = system: A498 renal
RPMI-8226 leukemia = system: RPMI-8226 leukemia
XF 498 CNS = system: XF 498 CNS
SK-MEL-2 melanoma = system: SK-MEL-2 melanoma
DMS 114 small cell lung = system: DMS 114 small cell lung
HCT-116 colon = system: HCT-116 colon
M14 melanoma = system: M14 melanoma
CCRF-CEM leukemia = system: CCRF-CEM leukemia
NCI-H522 lung = system: NCI-H522 lung
OVCAR-5 ovarian = system: OVCAR-5 ovarian
LOX IMVI melanoma = system: LOX IMVI melanoma
SNB-75 CNS = system: SNB-75 CNS
HT29 colon = system: HT29 colon
SK-MEL-28 melanoma = system: SK-MEL-28 melanoma
SN12C renal = system: SN12C renal
CAKI-1 renal = system: CAKI-1 renal
SW-620 colon = system: SW-620 colon
LXFL 529 NSCLC = system: LXFL 529 NSCLC
HOP-92 NSCLC = system: HOP-92 NSCLC
HCT-15 colon = system: HCT-15 colon
UACC-62 melanoma = system: UACC-62 melanoma
SK-OV-3 ovarian = system: SK-OV-3 ovarian
RXF 393 renal = system: RXF 393 renal
OVCAR-4 ovarian = system: OVCAR-4 ovarian
U251 CNS = system: U251 CNS
M19-MEL melanoma = system: M19-MEL melanoma
UACC-257 melanoma = system: UACC-257 melanoma
K-562 leukemia = system: K-562 leukemia
SK-MEL-5 melanoma = system: SK-MEL-5 melanoma
KM12 colon = system: KM12 colon
IGROV1 ovarian = system: IGROV1 ovarian
DLD-1 colon = system: DLD-1 colon
MOLT-4 leukemia = system: MOLT-4 leukemia
SNB-78 CNS = system: SNB-78 CNS
SF-539 CNS = system: SF-539 CNS
DMS 273 small cell lung = system: DMS 273 small cell lung
SF-268 CNS = system: SF-268 CNS
OVCAR-3 ovarian = system: OVCAR-3 ovarian
HOP-18 NSCLC = system: HOP-18 NSCLC
MALME-3M melanoma = system: MALME-3M melanoma
786-0 renal = system: 786-0 renal

Measured: TGI

Cc1ccccc1NC(=O)C(=O)C(C1OC(=O)c2ccccc21)[N+](=O)[O-] (centres undefined)
not listed: OVCAR-3 ovarian | HOP-18 NSCLC | MALME-3M melanoma | 786-0 renal
> 100 µM: all other assays above

CCN(CC)C(=O)c1cccc2c(OC)ccc(OC)c12
not listed: XF 498 CNS | HOP-92 NSCLC | SNB-78 CNS | SF-539 CNS
> 100 µM: all other assays above

Cc1c2ccccc2c(=O)n2c(-c3ccccn3)cccc12
not listed: OVCAR-5 ovarian | LXFL 529 NSCLC
> 100 µM: all other assays above
